Experimental data from the supplement of paper PMC10307832.

Experiments:
Assay in all cases: relative viability (nuclei count vs DMSO), 5 days (fraction); higher = more cells survive
MLN4924 + Linsitinib = compound: NS(=O)(=O)OC[C@@H]1C[C@@H](n2ccc3c(N[C@H]4CCc5ccccc54)ncnc32)C[C@@H]1O [MLN4924] + C[C@]1(O)C[C@@H](c2nc(-c3ccc4ccc(-c5ccccc5)nc4c3)c3c(N)nccn32)C1 [Linsitinib] (partner 1 µM)
Method in brief: (§1)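 After 5 days of treatment, lung cancer cells in 1536-well plates were fixed and stained in a single step (final 0.05% Triton X-100, 1% formaldehyde, 1 ug/ml Hoechst) and their nuclei counted on 4× images. Treatment had been applied by pin tool the day after seeding as one drug alone or as a fixed anchor-drug dose with five library-drug doses (not always all listed) in √10 steps. Relative viability is the nuclei count of treated wells divided by that of vehicle wells, and values are medians of duplicate plates.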

Carboplatin + Linsitinib = compound: C1CC(C1)(C(=O)O)C(=O)O.[NH2-].[NH2-].[Pt+2] [Carboplatin] + C[C@]1(O)C[C@@H](c2nc(-c3ccc4ccc(-c5ccccc5)nc4c3)c3c(N)nccn32)C1 [Linsitinib] (partner 1 µM)
Method in brief: as §1

MLN4924 + Navitoclax = compound: NS(=O)(=O)OC[C@@H]1C[C@@H](n2ccc3c(N[C@H]4CCc5ccccc54)ncnc32)C[C@@H]1O [MLN4924] + CC1(C)CCC(c2ccc(Cl)cc2)=C(CN2CCN(c3ccc(C(=O)NS(=O)(=O)c4ccc(N[C@H](CCN5CCOCC5)CSc5ccccc5)c(S(=O)(=O)C(F)(F)F)c4)cc3)CC2)C1 [Navitoclax] (partner 0.5 µM)
Method in brief: as §1

GSK126 + Olaparib = compound: CC[C@H](C)N1C=C(C2=C(C=C(C=C21)C3=CN=C(C=C3)N4CCNCC4)C(=O)NCC5=C(C=C(NC5=O)C)C)C [GSK126] + O=C(c1cc(Cc2n[nH]c(=O)c3ccccc23)ccc1F)N1CCN(C(=O)C2CC2)CC1 [Olaparib] (partner 8 µM)
Method in brief: as §1

UMC-11
relative viability (MLN4924 + Linsitinib; first compound 0.04 µM): 0.645 | relative viability (MLN4924 + Linsitinib; first compound 0.1265 µM): 0.331 | relative viability (MLN4924 + Linsitinib; first compound 0.4 µM): 0.238 | relative viability (MLN4924 + Linsitinib; first compound 1.265 µM): 0.194 | relative viability (MLN4924 + Linsitinib; first compound 4 µM): 0.153 | relative viability (Carboplatin + Linsitinib; first compound 0.08 µM): 1.02 | relative viability (Carboplatin + Linsitinib; first compound 0.253 µM): 1.01 | relative viability (Carboplatin + Linsitinib; first compound 0.8 µM): 0.928 | relative viability (Carboplatin + Linsitinib; first compound 2.53 µM): 0.98 | relative viability (Carboplatin + Linsitinib; first compound 8 µM): 0.837 | relative viability (MLN4924 + Navitoclax; first compound 0.04 µM): 0.198 | relative viability (MLN4924 + Navitoclax; first compound 0.1265 µM): 0.142 | relative viability (MLN4924 + Navitoclax; first compound 0.4 µM): 0.167 | relative viability (MLN4924 + Navitoclax; first compound 1.265 µM): 0.1 | relative viability (MLN4924 + Navitoclax; first compound 4 µM): 0.112 | relative viability (GSK126 + Olaparib; first compound 0.08 µM): 0.345 | relative viability (GSK126 + Olaparib; first compound 0.253 µM): 0.364 | relative viability (GSK126 + Olaparib; first compound 0.8 µM): 0.394 | relative viability (GSK126 + Olaparib; first compound 2.53 µM): 0.376 | relative viability (GSK126 + Olaparib; first compound 8 µM): 0.361
